Consider two compounds from patent US20250108068A1, “COMPOSITIONS AND METHODS FOR ALLEVIATING PULMONARY AILMENTS” (Color Ventures LLC, priority 2023, published 2025).

One assay concerns sheep. Put plainly: Tracheal mucus velocity (TMV) in sheep after CFTR inhibition. The format is in vivo. To be noted: nebulization, over a period of 2-3 hours. The procedure:
Modeling mucociliary clearance. To model mucociliary clearance, sheep 40-50 kg were intubated and the velocity of mucociliary clearance in the trachea was measured by insufflation of radio-opaque Teflon discs were placed into the sheep trachea so that they become embedded in the mucus in the trachea. The movement of multiple discs over several minutes was determined using fluoroscopy and the tracheal mucus velocity (TMV) is calculated as the average that the discs travel per minute. After establishing a baseline TMV, a potent long-lasting inhibitor of CFTR (INH-172) was delivered by nebulization with TMV measurements performed every hour, and over a period of 2-3 hours the TMV declines by approximately 50% in a manner like CF where the inability to secrete Cl^− and NaHCO3 results in dehydration of the airways and slowing of mucociliary clearance.
Once the stable inhibition of TMV has been established, typically at hour 4, the test compound was delivered by nebulization and TMV measured for an additional 8 hours. Inhibitors of ENaC like amiloride (as described in Scott, David W., et al., American Journal of Respiratory and Critical Care Medicine 196.6 (2017): 734-744, incorporated herein in its entirety) and P1037/VX371 show rescue of TMV that is of limited duration with an effect that only lasts for 2-3 hours, due to systemic clearance.

Assay [1] relates to test epithelia (MucilAir™). The assay is described as follows: Cilia beating frequency (CBF) and % active area. Format: cell-based, human. To be noted: positive control, 100 μM in basolateral compartment for 2 hours. The procedure:
In the studies described herein, test epithelia (MucilAir™, Epithelix) are reconstituted from cells isolated from a healthy bronchial donor. The formulation is exposed apically to mimic deposition on the nasal mucosa via inhalation. In the studies described herein, positive controls depend on experiment. For example: Isoproterenol 100 μM in culture medium; CBF activator applied in basolateral compartment ([…]) for 2 hours (CBF positive control); Isoproterenol 100 μM in culture medium (MCC positive control); […] Timeline of Epithelia Experiments. At time point 0, epithelia are treated with the test formulation or control using an apical mode of administration. Test formulations or control were exposed at a quantity of 10 μL, at the concentrations in Table 1. […] In some embodiments, CBF is analyzed with Sisson-Ammons Video Analysis (SAVA) software (Sisson et al., Journal of microscopy 211.2 (2003): 103-111) using an inverted phase contrast microscope (Zeiss®, Germany). In some embodiments, CBF is analyzed with Epithelix software (Cilia-X). […] In some embodiments, two videos are recorded per well at 120 frames per second with a total of 512 frames per video. In other embodiments, the CBF is expressed as Hz 256, wherein movies are captured at a high frequency rate of 125 frames per second. […]

Take `O=C(O)c1ccc(C=C2SC(=S)N(c3cccc(C(F)(F)F)c3)C2=O)cc1` [INH-172]: the “Decline of TMV from baseline” value in the assay on sheep is “approximately 50%”.
Consider `CC(C)NCC(O)c1ccc(O)c(O)c1` (centres unmarked) [positive control of cilia beating, Isoproterenol], for which the Cilia beating frequency result in assay [1] is “highest cilia beating frequency”.
